From patent publication US10253002B2, “Compounds and methods of treating infections” (Neoculi Pty Ltd., priority 2013, dated 2019)
Values after ≈ are worked out from the molar mass of the structure shown. Values joined by “and” are separate entries in the source; they are usually repeats but may differ in a detail not shown here. Identical values can stand only once. Like-named read-outs stand apart in the source and are kept apart here.

What was measured:
Assay in all cases: Broth microdilution MIC, Example 7 (NCL812 and analogues)
Escherichia coli = assay type: cell-based; settings: 24 hours
Pseudomonas aeruginosa = assay type: cell-based
MRSA = assay type: cell-based, Staphylococcus aureus; settings: for activity against MRSA among analogues: MIC testing, two MRSA strains; for MIC: Staphylococcus aureus, MRSA
How it was run: (§1)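 Values are MICs in μg/ml from broth microdilution per CLSI, with growth scored against a drug-free well.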

VRE = assay type: cell-based, Enterococcus spp.; settings: for activity against VRE among analogues: MIC testing, two VRE strains; for MIC: Enterococcus, VRE, 24 h
How it was run: as §1

[1] = isolate MRSA 1, 24 hours, 1st and 2nd replicate rows
[2] = isolate MRSA 2, 24 hours, 1st and 2nd replicate rows
[3] = isolate VRE 1, 24 hours, 1st and 2nd replicate rows
[4] = isolate VRE 2, 24 hours, 1st and 2nd replicate rows
[5] = E. coli, duplicate lines per compound
[6] = P. aeruginosa, duplicate lines per compound
[7] = MRSA 1, 24 hours, duplicate lines per compound
[8] = MRSA 2, 24 hours, duplicate lines per compound
[9] = VRE 1, 24 hours, duplicate lines per compound
[10] = VRE 2, 24 hours, duplicate lines per compound

MIC (μg/ml) at 24 hours, E. coli (Escherichia coli; 1st and 2nd replicate rows) | MIC (μg/ml) at 24 hours, P. aeruginosa (Pseudomonas aeruginosa; 1st and 2nd replicate rows) | MIC (μg/ml) at 24 hours, MRSA 1 (MRSA; [1]) | MIC (μg/ml) at 24 hours, MRSA 2 (MRSA; [2]) | MIC (μg/ml) at 24 hours, VRE 1 (VRE; [3]) | MIC (μg/ml) at 24 hours, VRE 2 (VRE; [4]) | MIC (μg/ml) at 24 hours, E. coli (Escherichia coli; [5]) | MIC (μg/ml) at 24 hours, P. aeruginosa (Pseudomonas aeruginosa; [6]) | MIC (μg/ml) at 24 hours, MRSA 1 (MRSA; [7]) | MIC (μg/ml) at 24 hours, MRSA 2 (MRSA; [8]) | MIC (μg/ml) at 24 hours, VRE 1 (VRE; [9]) | MIC (μg/ml) at 24 hours, VRE 2 (VRE; [10]) | Compound | also measured
>128 µg/mL | >128 µg/mL | >128 µg/mL | >128 µg/mL | >128 µg/mL | 32 µg/mL (≈ 79.5 µM) | – | – | – | – | – | – | O=C(NN=Cc1cccc(C(F)(F)F)c1)NN=Cc1cccc(C(F)(F)F)c1 [NCL011] | activity against VRE among analogues (VRE): greatest activity
– | – | – | – | – | – | >128 µg/mL | >128 µg/mL | >128 µg/mL | >128 µg/mL | >128 µg/mL | >128 µg/mL | Cl.N=C(NN=Cc1cnc2ccccc2n1)NN=Cc1cnc2ccccc2n1 [NCL 147] | –
– | – | – | – | – | – | >128 µg/mL | >128 µg/mL | 64 µg/mL | 64 µg/mL | 128 µg/mL | 64 µg/mL | Cl.N=C(NN=Cc1ccc(O)cc1)NN=Cc1ccc(O)cc1 [NCL 151] | –
– | – | – | – | – | – | >128 µg/mL | >128 µg/mL | >128 µg/mL | 128 µg/mL (≈ 534 µM) | >128 µg/mL | >128 µg/mL | CCO/C(N)=N/N=C(\C)c1ccc(Cl)cc1 [NCL 162] | –
– | – | – | – | – | – | >128 µg/mL | >128 µg/mL | 8 µg/mL | 4 µg/mL and 8 µg/mL | 2 µg/mL | 8 µg/mL | CC(C)c1ccc(/C=N/NC(=N)N/N=C/c2ccc(C(C)C)cc2)cc1.Cl [NCL 120] | –
>128 µg/mL | >128 µg/mL | >128 µg/mL | >128 µg/mL | >128 µg/mL | 8 µg/mL | – | – | – | – | – | – | CC(=NNC(=N)NN=C(C)c1ccc(C(F)(F)F)cc1)c1ccc(C(F)(F)F)cc1.Cl [NCL061] | activity against VRE among analogues (VRE): greatest activity
– | – | – | – | – | – | >128 µg/mL | >128 µg/mL | >128 µg/mL | >128 µg/mL | >128 µg/mL | >128 µg/mL | FC(F)(F)c1ccc(-c2nnc(Nc3ccc(Cl)cc3)[nH]2)cc1 [NCL091] | –
– | – | – | – | – | – | – | – | – | – | – | – | Nc1nc(N/N=C/c2ccccc2)cc(N/N=C/c2ccccc2)n1 [NCL199] | MIC (Escherichia coli; Escherichia coli, read-out: MIC (μg/ml) at 24 hours E. coli, E. coli): > 128 µg/mL; MIC (Pseudomonas aeruginosa; Pseudomonas aeruginosa, 24 h, read-out: MIC (μg/ml) at 24 hours P. aeruginosa, P. aeruginosa, 24 hours): > 128 µg/mL; activity against MRSA among analogues (MRSA): greatest activity; MIC (μg/ml) at 24 hours, MRSA 1 (MRSA; MRSA 1, 24 hours): 4 µg/mL (≈ 12.1 µM); MIC (MRSA; 24 h, read-out: MIC (μg/ml) at 24 hours MRSA 1, MRSA 1, 24 hours): 2 µg/mL (≈ 6.04 µM); MIC (MRSA; 24 h, read-out: MIC (μg/ml) at 24 hours MRSA 2, MRSA 2, 24 hours): 4 µg/mL (≈ 12.1 µM); MIC (MRSA; bioassay ranking, read-out: MRSA): 3.5 µg/mL (≈ 10.6 µM); MIC (VRE; read-out: MIC (μg/ml) at 24 hours VRE 1, VRE 1, 24 hours): > 128 µg/mL; MIC (VRE; read-out: MIC (μg/ml) at 24 hours VRE 2, VRE 2, 24 hours): > 128 µg/mL
>128 µg/mL | >128 µg/mL | >128 µg/mL | >128 µg/mL | >128 µg/mL | >128 µg/mL | – | – | – | – | – | – | N#Cc1cccc(/C=N/NC(N)=O)c1 [NCL051] | –
>128 µg/mL | >128 µg/mL | >128 µg/mL | >128 µg/mL | >128 µg/mL | >128 µg/mL | – | – | – | – | – | – | Cl.N#Cc1cccc(/C=N/NC(=N)N)c1 [NCL033] | –
– | – | – | – | – | – | >128 µg/mL | >128 µg/mL | >128 µg/mL | >128 µg/mL | >128 µg/mL | >128 µg/mL | Cl.N=C(NN=C1C(=O)Nc2ccccc21)NN=C1C(=O)Nc2ccccc21 [NCL 163] | –
– | – | – | – | – | – | >128 µg/mL | >128 µg/mL | >128 µg/mL | >128 µg/mL | >128 µg/mL | >128 µg/mL | Cl.N=C(NN=Cc1ccc(O)c([N+](=O)[O-])c1)NN=Cc1ccc(O)c([N+](=O)[O-])c1 [NCL 122] | –
>128 µg/mL | >128 µg/mL | >128 µg/mL | >128 µg/mL | >128 µg/mL | >128 µg/mL | – | – | – | – | – | – | O=C(N/N=C/c1cccc(F)c1)N/N=C/c1cccc(F)c1 [NCL004] | –
– | – | – | – | – | – | >128 µg/mL | >128 µg/mL | >128 µg/mL | >128 µg/mL | >128 µg/mL | >128 µg/mL | Cl.N#Cc1ccccc1C=NNC(=N)NN=Cc1ccc(Cl)cc1 [NCL085] | –
>128 µg/mL | >128 µg/mL | >128 µg/mL | >128 µg/mL | >128 µg/mL | >128 µg/mL | – | – | – | – | – | – | Cl.N=C(N)N/N=C/c1ccccc1F [NCL016] | –
>128 µg/mL | >128 µg/mL | >128 µg/mL | >128 µg/mL | >128 µg/mL | >128 µg/mL | – | – | – | – | – | – | Cl.N=C(N)N/N=C/c1ccccc1C(F)(F)F [NCL042] | –
– | – | – | – | – | – | >128 µg/mL | >128 µg/mL | >128 µg/mL | >128 µg/mL | >128 µg/mL | >128 µg/mL | Cl.Cl.Cl.N=C(NN=C(CN)c1ccccc1)NN=C(CN)c1ccccc1 [NCL 165] | –
– | – | – | – | – | – | – | – | – | – | – | – | CN(C)c1ccc(/C=N/Nc2cc(N/N=C/c3ccc(N(C)C)cc3)nc(N)n2)cc1 [NCL201] | MIC (μg/ml) at 24 hours, E. coli (Escherichia coli; E. coli): >128 µg/mL; MIC (μg/ml) at 24 hours, P. aeruginosa (Pseudomonas aeruginosa; P. aeruginosa): >128 µg/mL; activity against MRSA among analogues (MRSA): greatest activity; MIC (μg/ml) at 24 hours, MRSA 1 (MRSA; MRSA 1, 24 hours): 32 µg/mL and 64 µg/mL; MIC (μg/ml) at 24 hours, MRSA 2 (MRSA; MRSA 2, 24 hours): 16 µg/mL and 32 µg/mL; MIC (μg/ml) at 24 hours, VRE 1 (VRE; VRE 1, 24 hours): >128 µg/mL; MIC (μg/ml) at 24 hours, VRE 2 (VRE; VRE 2, 24 hours): >128 µg/mL
– | – | – | – | – | – | >128 µg/mL | >128 µg/mL | >128 µg/mL | >128 µg/mL | >128 µg/mL | >128 µg/mL | Cl.N=C(NN=CC1=C(Cl)c2cc(F)ccc2OC1)NN=CC1=C(Cl)c2cc(F)ccc2OC1 [NCL 132] | –
>128 µg/mL | >128 µg/mL | >128 µg/mL | >128 µg/mL | >128 µg/mL | >128 µg/mL | – | – | – | – | – | – | COc1cccc(/C=N/NC(=O)N/N=C/c2cccc(OC)c2)c1 [NCL010] | –
– | – | – | – | – | – | >128 µg/mL | >128 µg/mL | >128 µg/mL | >128 µg/mL | >128 µg/mL | >128 µg/mL | Clc1ccc(CNc2nnc(-c3ccc(Cl)cc3)[nH]2)cc1 [NCL092] | –
– | – | – | – | – | – | >128 µg/mL | >128 µg/mL | >128 µg/mL | >128 µg/mL | >128 µg/mL | >128 µg/mL | CCCCC(=NNC(=N)NN=C(CCCC)c1ccc(Cl)cc1)c1ccc(Cl)cc1.Cl [NCL 154] | –
